The term pEC50 denotes the EC50 on a negative log10 scale, so that one unit is a factor of ten. Higher therefore signals a small EC50.

pEC50: −log10 of the molar value.

From US8609669B2, “Potassium channel modulators” (AbbVie Inc., priority 2010, dated 2013) come the findings set out here.

For this assay, the target named is T1, KCNQ 2/3 channels (HEK293 cells stably expressing human KCNQ2 and KCNQ3 subunits) (Homo sapiens, UniProt O43525+O43526).
T1 construct: expressed in transfected cells; host or cells: HEK293
The assay can be described thus: KCNQ2/3 channel activation, thallium flux FLIPR assay (BTC-AM dye). It is filed as cell-based. The note with it: for Emax: HEK293, maximum response relative to response of retigabine at 10 μM (set at 100%), read-out: Max. %; for pEC50: HEK293 cells expressing human KCNQ2 and KCNQ3, FLIPR thallium flux. The procedure: The following example describes the assay that can be used to identify compounds that activate KCNQ 2/3 channels.
HEK293 cells stably expressing human KCNQ2 and KCNQ3 subunits were seeded in 96-well, black-walled, clear-bottomed, poly-D-lysine coated plates (BD Biosciences, Bedford, Mass.) at a density of 1×10^5 cells per well 24 hours before the assay. On the assay day, BTC-AM dye (Invitrogen, Carlsbad, Calif.) was loaded into the cells by replacing the cell culture medium with 100 μL/well of 4 μM dye in DPBS. Dye loading was allowed to proceed for 2 hours at room temperature and then cells were washed twice in 100 μL/well of assay buffer (in mM: 10 HEPES pH 7.3, 5 glucose, 140 Na-gluconate, 2.5 K-gluconate, 3.6 Ca-gluconate, 2 MgSO4, 0.1 Ouabain) to remove unloaded dye. Cells were incubated in 50 μL of assay buffer before loading onto a FLIPR system (Molecular Devices, Sunnyvale, Calif.). Various concentrations of compounds to be assayed were added to the cells in 50 μL of assay buffer and incubated for 4 minutes. The fluorescence signal was initiated by adding 100 μL of assay buffer containing 6 mM TlNO3 and 10 mM K2SO4. Fluors were excited using the 488-nm line of an argon laser and emission was filtered using a 540±30 nm bandpass filter. Fluorescent signals were recorded for 3 minutes. Responses over baseline values were plotted versus concentrations of test compounds to obtain an EC50 value. The maximum response for each test compound was determined relative to the response produced at 10 μM by retigabine. The maximum response of retigabine at 10 μM was set at 100%.

Turning to `Cc1ccnc2c(Cc3ccc(F)cc3)c(NC(=O)CCC3CCCC3)nn12` [Example 71, 3-cyclopentyl-N-[3-(4-fluorobenzyl)-7-methylpyrazolo[1,5-a]pyrimidin-2-yl]propanamide], the Emax came to 141% and the pEC50 was greater than 7.00.

Regarding `Cc1cnc2c(-c3ccc(C)c(Cl)c3)c(NC(=O)Cc3ccc(F)cc3)nn2c1` [Example 72, N-[3-(3-chloro-4-methylphenyl)-6-methylpyrazolo[1,5-a]pyrimidin-2-yl]-2-(4-fluorophenyl)acetamide], the Emax was determined as 247% and the negative-log EC50 (pEC50) is 6.30 to 7.00.

For `Cc1cnc2c(Cc3ccc(F)cc3)c(NC(=O)CCC3CCCCC3)nn2c1` [Example 77, 3-cyclohexyl-N-[3-(4-fluorobenzyl)-6-methylpyrazolo[1,5-a]pyrimidin-2-yl]propanamide], the Emax is 133% and the pEC50 is greater than 7.00.

Consider `Cc1ccnc2c(-c3ccc(C(F)(F)F)cc3)c(NC(=O)CCC3CCCCC3)nn12` [Example 79, 3-cyclohexyl-N-{7-methyl-3-[4-(trifluoromethyl)phenyl]pyrazolo[1,5-a]pyrimidin-2-yl}propanamide], for which the Emax was 122% and the pEC50 was 6.30 to 7.00.

Regarding `COc1ccc(CC(=O)Nc2nn3c(C)ccnc3c2-c2ccc(C(F)(F)F)cc2)cc1` [Example 80, 2-(4-methoxyphenyl)-N-{7-methyl-3-[4-(trifluoromethyl)phenyl]pyrazolo[1,5-a]pyrimidin-2-yl}acetamide], the Emax is 59% and the pEC50 is less than 5.00.

With `O=C(Cc1ccc(F)cc1)Nc1nn2cccnc2c1-c1cccc(F)c1` [Example 82, 2-(4-fluorophenyl)-N-[3-(3-fluorophenyl)pyrazolo[1,5-a]pyrimidin-2-yl]acetamide], the Emax was found to be 112% and the pEC50 was 6.00 to 6.30.

Consider `Cc1cnc2c(-c3cccc(F)c3)c(NC(=O)CC3CCCC3)nn2c1` [Example 83, 2-cyclopentyl-N-[3-(3-fluorophenyl)-6-methylpyrazolo[1,5-a]pyrimidin-2-yl]acetamide], for which the Emax came to 139% and the pEC50 is 6.30 to 7.00.

As for `Cc1cnc2c(-c3cccc(F)c3)c(NC(=O)Cc3ccc(F)cc3)nn2c1` [Example 84, 2-(4-fluorophenyl)-N-[3-(3-fluorophenyl)-6-methylpyrazolo[1,5-a]pyrimidin-2-yl]acetamide], the Emax came to 132% and the pEC50 was 6.30 to 7.00.

Regarding `Cc1cc(C)n2nc(NC(=O)CCc3ccccc3)c(-c3cccc(F)c3)c2n1` [Example 85, N-[3-(3-fluorophenyl)-5,7-dimethylpyrazolo[1,5-a]pyrimidin-2-yl]-3-phenylpropanamide], the Emax is 131% and the negative-log EC50 (pEC50) is 6.00 to 6.30.

For the compound `Cc1cc(C)n2nc(NC(=O)CC3CCCCC3)c(-c3cccc(F)c3)c2n1` [Example 86, 2-cyclohexyl-N-[3-(3-fluorophenyl)-5,7-dimethylpyrazolo[1,5-a]pyrimidin-2-yl]acetamide], the Emax amounted to 138% and the pEC50 was greater than 7.00.

`Cc1cnc2c(-c3ccc(C(F)(F)F)c(F)c3)c(NC(=O)CC3CCCC3)nn2c1` [Example 87, 2-cyclopentyl-N-{3-[3-fluoro-4-(trifluoromethyl)phenyl]-6-methylpyrazolo[1,5-a]pyrimidin-2-yl}acetamide]: the Emax was 239% and the negative-log EC50 (pEC50) is 6.30 to 7.00.

On to `O=C(CCC1CCCC1)Nc1nn2cccnc2c1-c1ccc(C(F)(F)F)c(F)c1` [Example 88, 3-cyclopentyl-N-{3-[3-fluoro-4-(trifluoromethyl)phenyl]pyrazolo[1,5-a]pyrimidin-2-yl}propanamide], for which the Emax came out at 65% and the negative-log EC50 (pEC50) was 6.00 to 6.30.

Turning to `Cc1cnc2c(-c3ccccc3)c(NC(=O)CC(C)(C)C)nn2c1` [Example 92, 3,3-dimethyl-N-(6-methyl-3-phenylpyrazolo[1,5-a]pyrimidin-2-yl)butanamide], the Emax came out at 164% and the negative logarithm of the EC50 (pEC50) is 5.00 to 6.00.

On to `Cc1cnc2c(-c3ccccc3)c(NC(=O)Cc3ccc(Cl)cc3)nn2c1` [Example 93, 2-(4-chlorophenyl)-N-(6-methyl-3-phenylpyrazolo[1,5-a]pyrimidin-2-yl)acetamide], for which the Emax came to 131% and the negative-log EC50 (pEC50) was 6.30 to 7.00.

As to `Cc1cc(C)n2nc(NC(=O)CC3CCCCC3)c(-c3ccccc3)c2n1` [Example 94, 2-cyclohexyl-N-(5,7-dimethyl-3-phenylpyrazolo[1,5-a]pyrimidin-2-yl)acetamide], the Emax is 155% and the negative logarithm of the EC50 (pEC50) was greater than 7.00.

On to `Cc1cc(C)n2nc(NC(=O)CCC3CCCC3)c(-c3ccccc3)c2n1` [Example 95, 3-cyclopentyl-N-(5,7-dimethyl-3-phenylpyrazolo[1,5-a]pyrimidin-2-yl)propanamide], for which the Emax was 167% and the pEC50 was greater than 7.00.

For the compound `Cc1cc(C)n2nc(NC(=O)Cc3ccc(F)cc3)c(-c3ccccc3)c2n1` [Example 96, N-(5,7-dimethyl-3-phenylpyrazolo[1,5-a]pyrimidin-2-yl)-2-(4-fluorophenyl)acetamide], the Emax is 206% and the negative-log EC50 (pEC50) is 6.30 to 7.00.

Regarding `O=C(Cc1cccnc1)Nc1nn2cccnc2c1-c1ccc(OC(F)(F)F)cc1` [Example 98, 2-(pyridin-3-yl)-N-{3-[4-(trifluoromethoxy)phenyl]pyrazolo[1,5-a]pyrimidin-2-yl}acetamide], the Emax is 72.3% and the negative logarithm of the EC50 (pEC50) was less than 5.00.

In the case of `O=C(NCC1CCCCC1)Nc1nn2cccnc2c1-c1ccc(Cl)cc1` [Example 99, 1-[3-(4-chlorophenyl)pyrazolo[1,5-a]pyrimidin-2-yl]-3-(cyclohexylmethyl)urea], the Emax worked out at 94% and the negative-log EC50 (pEC50) was 5.00 to 6.00.

For `O=C(Cc1ccccn1)Nc1nn2cccnc2c1-c1ccc(Cl)cc1` [Example 100, N-[3-(4-chlorophenyl)pyrazolo[1,5-a]pyrimidin-2-yl]-2-(pyridin-2-yl)acetamide], the Emax is -1% and the pEC50 was less than 5.00.

With `O=C(Cc1cccnc1)Nc1nn2cccnc2c1-c1ccc(Cl)cc1` [Example 101, N-[3-(4-chlorophenyl)pyrazolo[1,5-a]pyrimidin-2-yl]-2-(pyridin-3-yl)acetamide], the Emax amounted to 8% and the negative-log EC50 (pEC50) was less than 5.00.

In the case of `O=C(Cc1ccncc1)Nc1nn2cccnc2c1-c1ccc(Cl)cc1` [Example 102, N-[3-(4-chlorophenyl)pyrazolo[1,5-a]pyrimidin-2-yl]-2-(pyridin-4-yl)acetamide], the Emax was 23% and the pEC50 is less than 5.00.

`O=C(NCC1CCOCC1)Nc1nn2cccnc2c1-c1ccc(Cl)cc1` [Example 103, 1-[3-(4-chlorophenyl)pyrazolo[1,5-a]pyrimidin-2-yl]-3-(tetrahydro-2H-pyran-4-ylmethyl)urea]: the Emax came to 8% and the negative-log EC50 (pEC50) was less than 5.00.

For the compound `O=C(Cc1ccccc1O)Nc1nn2cccnc2c1-c1ccc(Cl)cc1` [Example 104, N-[3-(4-chlorophenyl)pyrazolo[1,5-a]pyrimidin-2-yl]-2-(2-hydroxyphenyl)acetamide], the Emax was 10% and the pEC50 was less than 5.00.

Consider `CC(C)(C)c1c(NC(=O)CCC2CCCC2)nn2cccnc12` [Example 105, N-(3-tert-butylpyrazolo[1,5-a]pyrimidin-2-yl)-3-cyclopentylpropanamide], for which the Emax was 153% and the pEC50 was 6.30 to 7.00.

Consider `CC(C)(C)CC(=O)Nc1nn2cccnc2c1C(C)(C)C` [Example 106, N-(3-tert-butylpyrazolo[1,5-a]pyrimidin-2-yl)-3,3-dimethylbutanamide], for which the Emax worked out at 67% and the pEC50 was 5.00 to 6.00.

For the compound `CC(C)(C)c1c(NC(=O)CC23CC4CC(CC(C4)C2)C3)nn2cccnc12` [Example 107, 2-(adamantan-1-yl)-N-(3-tert-butylpyrazolo[1,5-a]pyrimidin-2-yl)acetamide], the Emax stood at 94% and the pEC50 was 6.30 to 7.00.

As for `O=C(Nc1nn2cccnc2c1-c1ccc(Cl)cc1)NC1CCCCC1` [Example 108, 1-[3-(4-chlorophenyl)pyrazolo[1,5-a]pyrimidin-2-yl]-3-cyclohexylurea], the Emax turned out to be 8% and the pEC50 is less than 5.00.

Turning to `COc1cc(CC(=O)Nc2nn3cccnc3c2-c2ccc(Cl)cc2)cc(OC)c1` [Example 109, N-[3-(4-chlorophenyl)pyrazolo[1,5-a]pyrimidin-2-yl]-2-(3,5-dimethoxyphenyl)acetamide], the Emax was 8% and the pEC50 is less than 5.00.

In the case of `CC(C)(C)CC(=O)Nc1nn2cccnc2c1-c1cccnc1` [Example 110, 3,3-dimethyl-N-[3-(pyridin-3-yl)pyrazolo[1,5-a]pyrimidin-2-yl]butanamide], the Emax was determined as 8% and the pEC50 was less than 5.00.
